{
  "source": "patent US4000310A",
  "about": "“Pharmaceutical compositions containing 6-methyl-3,4-diphenyl-3,4,5,6-tetrahydro-2-pyrone or derivatives thereof” (Union Chimique Continentale-U.C.C, priority 1974, dated 1976)",
  "key": {"rats [1]": {"test_system": "rats", "experiment": "Test of anticataleptic action (prochlorperazine catalepsy)", "format": "in vivo, rat (male, Wistar Af stock)", "settings": "16 or 64 mg/kg i.p. or oral, prochlorperazine 8 mg/kg i.p., homolateral paws, Buddha or elevator test", "experimental": "(§1) All the experiments described below were carried out using male rats weighing from 170 to 220 g (Wistar Af stock) and male mice weighing from 18 to 23 g (Swiss NMRI stock)."}, "animals [2]": {"test_system": "animals", "experiment": "Test with the board containing holes", "format": "in vivo", "experimental": "The method and apparatus described by BOISSIER and SIMON (Physiol. Behav. 1967, 2, 444-448) were used. During these experiments 15 animals were used per batch (except that 30 were used for the control group and 30 for the dose of 64 mg/kg)."}, "rat [3]": {"test_system": "rat", "experiment": "Avoidance conditioning in the rat (shuttle-box)", "format": "in vivo, rat (male, Wistar Af stock)", "settings": "64 mg/kg oral, 8 animals", "experimental": "as §1\nThe avoidance conditioning was studied in the rat placed in a shuttle-box (with 2 compartments) (of. BOISSIER and SIMON: Therapie 1968, 23, 1267-1276)."}, "[4]": {"test_system": "convulsion-inducing attacks", "experiment": "Interaction with convulsion-inducing dose of cardiazol", "format": "in vivo", "settings": "64 mg/kg oral 30 min before cardiazol 160 mg/kg s.c."}, "rat [5]": {"test_system": "rat", "experiment": "Effects of barbiturate hypnotics, rat", "format": "in vivo, rat (male, Wistar Af stock)", "settings": "rat, 16, 32 or 64 mg/kg oral, with pentabarbitone or barbitone sodium", "experimental": "as §1"}, "monoamine oxidase": {"test_system": "monoamine oxidase", "experiment": "Monoamine oxidase inhibition (tryptamine test)", "format": "in vivo, rat (male, Wistar Af stock)", "settings": "rat, 64 mg/kg i.p.; tryptamine 3 mg/kg i.v.", "experimental": "as §1\nThe dose of tryptamine given was insufficient to induce convulsions (3 mg/kg by intravenous injection)."}, "animals [6]": {"test_system": "animals", "experiment": "animal or person", "format": "in vivo, rat and mouse", "experimental": "an increase in the activity and alertness of animals without abnormal behaviour and particularly stereotyped movements ever appearing. Increased activity and alertness were found in both the rat and the mouse by observing the animals, measuring their motor activity and measuring their exploration of a board containing holes and the shortening of the reaction time of mice on a hot-plate. The increase is marked (according to the tests) from doses of 16 to 32 mg/kg given orally; it takes place rapidly after administration and lasts about 2 hours. These doses are far from the toxic level (ratio LD50/ED 50 approximately 20/1 in the mouse and over 10/1 in the rat);"}, "mouse [7]": {"test_system": "mouse", "experiment": "Observation of the animals, mouse", "format": "in vivo, mouse (male, Swiss NMRI stock)", "experimental": "as §1\nAll the experiments took place in a laboratory with a constant temperature (22° ± 1° C).\nAll the experiments were carried out blind (without the experimenter knowing, at the time of the tests, which animals had received the substance presumed active).\nUnless otherwise stated, 10 animals were always used per point."}, "rats [8]": {"test_system": "rats", "experiment": "Test for antireserpine action, rats", "format": "in vivo, rat (male, Wistar Af stock)", "settings": "rats, 8, 16, 32 and 64 mg/kg oral; reserpine 2.5 mg/kg i.p. 4 hours before", "experimental": "as §1"}, "rat [9]": {"test_system": "rat", "experiment": "Amphetamine stereotypy test", "format": "in vivo, rat (male, Wistar Af stock)", "settings": "rat, 32, 64 or 128 mg/kg oral 60 min before amphetamine 2 mg/kg i.p.", "experimental": "as §1"}, "mice [10]": {"test_system": "mice", "experiment": "Test for antireserpine action, mice", "format": "in vivo, mouse (male, Swiss NMRI stock)", "settings": "mice, 8, 16, 32 and 64 mg/kg oral; reserpine 2.5 mg/kg i.p. 4 hours before", "experimental": "as §1"}, "mouse [11]": {"test_system": "mouse", "experiment": "Conditioned inhibition, 4 plate test, mouse", "format": "in vivo, mouse (male, Swiss NMRI stock)", "experimental": "as §1\nA simple conditioned inhibition test was used, the 4 plate test (ARON an Coll, Neuropharmacology 1971, 10, 459-470)."}, "mice [12]": {"test_system": "mice", "experiment": "Test for antioxotremorine action", "format": "in vivo, mouse (male, Swiss NMRI stock)", "settings": "mice, 8, 16, 32 or 64 mg/kg i.p. or oral; oxotremorine 0.5 mg/kg i.p.", "experimental": "as §1\nIn mice which had been dosed intraperitoneally or orally with 8, 16, 32 or 64 mg/kg of MDTP, the effects of oxotremorine (0.5 mg/kg given intraperitoneally) were unchanged, as far as hypothermia, tremors, tears, hypersalivation and defecation were concerned."}, "rat [13]": {"test_system": "rat", "experiment": "Apomorphine stereotypy test", "format": "in vivo, rat (male, Wistar Af stock)", "settings": "rat, 32, 64 or 128 mg/kg oral 60 min before apomorphine 0.5 mg/kg s.c.", "experimental": "as §1"}, "mouse [14]": {"test_system": "mouse", "experiment": "Hot-plate test on the mouse", "format": "in vivo, mouse (male, Swiss NMRI stock)", "experimental": "as §1\nThis test was applied to measure the time taken or animals to react to a painful stimulus. 12 animals were used per point. 15 Minutes after oral administration of MDTP (64 mg/kg) the time taken for mice exposed to the hot-plate to react (by licking their rear paws) was 5.9 seconds, whereas the time taken by the control group was 9.5 seconds (difference significant at the threshold of 0.01).\nOn the other hand, the effects on this test of an analgesic dose of morphine was not changed -- either by increasing or reducing them -- by MDTP at the same dose."}, "mouse [15]": {"test_system": "mouse", "experiment": "Effects of barbiturate hypnotics, mouse", "format": "in vivo, mouse (male, Swiss NMRI stock)", "settings": "mouse, 16, 32 or 64 mg/kg oral, with pentabarbitone or barbitone sodium", "experimental": "as §1"}, "[16]": {"settings": "16 mg/kg orally 60 min before test"}, "[17]": {"settings": "32 mg/kg orally 60 min before test"}, "[18]": {"settings": "64 mg/kg orally 60 min before test"}, "[19]": {"settings": "128 mg/kg orally 60 min before test"}},
  "data": [
    {"smiles": "CC1CC(c2ccccc2)C(c2ccccc2)C(=O)O1", "note": "(stereo not shown) [MDTP, 6-methyl-3,4-diphenyl-3,4,5,6-tetrahydro-2-pyrone]", "values": [
      {"measurement": "change in cataleptic state", "setting": "rats [1]", "result": "did not produce any change in the cataleptic state"},
      {"measurement": "displacements made in 5 min", "setting": "animals [2]; [16]", "result": "98 % of control group"},
      {"measurement": "holes explored in 5 min", "setting": "animals [2]; [16]", "result": "120 % of control group"},
      {"measurement": "displacements made in 5 min", "setting": "animals [2]; [17]", "result": "115 % of control group"},
      {"measurement": "holes explored in 5 min", "setting": "animals [2]; [17]", "result": "131 % of control group"},
      {"measurement": "displacements made in 5 min", "setting": "animals [2]; [18]", "result": "161 % of control group"},
      {"measurement": "holes explored in 5 min", "setting": "animals [2]; [18]", "result": "140 % of control group"},
      {"measurement": "displacements made in 5 min", "setting": "animals [2]; [19]", "result": "159 % of control group"},
      {"measurement": "holes explored in 5 min", "setting": "animals [2]; [19]", "result": "141 % of control group"},
      {"measurement": "minimal effective dose", "setting": "animals [2]; oral, read-out: dose from which increase in number of holes explored becomes significant", "result": 32, "unit": "mg/kg"},
      {"measurement": "change in avoidance conditioning", "setting": "rat [3]", "result": "did not produce any change in conditioning"},
      {"measurement": "latency of convulsion-inducing attacks", "setting": "[4]", "result": "did not reduce the latency of the convulsion-inducing attacks"},
      {"measurement": "change in time to fall asleep and sleeping period", "setting": "rat [5]", "result": "did not produce any change in the time taken to fall asleep or in the sleeping period"},
      {"measurement": "effects of tryptamine (inhibiting effect on monoamine oxidase)", "setting": "monoamine oxidase", "result": "did not increase the effects of tryptamine"},
      {"measurement": "signs of sympathetic excitation, sleep preventing action", "setting": "animals [6]; in vivo", "result": "does not give rise to any signs of sympathetic excitation, any sleep preventing action"},
      {"measurement": "sleep inhibiting effect", "setting": "animals [6]; in vivo", "result": "does not have any sleep inhibiting effect"},
      {"measurement": "duration of increase in activity and alertness", "setting": "animals [6]; oral, rat and mouse", "result": "about 2 hours"},
      {"measurement": "minimal effective dose", "setting": "animals [6]; po, read-out: doses from which increase in activity and alertness is marked", "result": "16 to 32", "unit": "mg/kg"},
      {"measurement": "diameter of the pupils, rectal temperature", "setting": "mouse [7]; doses below toxic level", "result": "no change in diameter of the pupils or the rectal temperature"},
      {"measurement": "motor incoordination, abnormal or stereotyped movements", "setting": "mouse [7]; doses below toxic level", "result": "not accompanied by motor incoordination or by abnormal or stereotyped movements"},
      {"measurement": "hyperthermia", "setting": "mouse [7]; doses very close to lethal level", "result": "moderate hyperthermia"},
      {"measurement": "toxic signs", "setting": "mouse [7]; in vivo", "result": "tremors, hyperreactivity to very intense stimuli, interaggressiveness and convulsive phenomena with the rear paws stretched"},
      {"measurement": "excitation on observation", "setting": "mouse [7]; oral or intraperitoneal, from 16 mg/kg, below toxic level", "result": "slight excitation is observed with increased reaction to touching or to sound stimuli"},
      {"measurement": "minimal effective dose", "setting": "mouse [7]; oral or intraperitoneal, read-out: dose from which slight excitation is observed", "result": 16, "unit": "mg/kg"},
      {"measurement": "change in reserpine-induced hypothermia or palpebral ptosis", "setting": "rats [8]", "result": "did not produce any change in the hypothermia or palpebral ptosis"},
      {"measurement": "change in amphetamine-induced stereotyped movements", "setting": "rat [9]", "result": "did not bring about any change in the stereotyped movements"},
      {"measurement": "change in reserpine-induced hypothermia or palpebral ptosis", "setting": "mice [10]", "result": "did not produce any change in the hypothermia or palpebral ptosis"},
      {"measurement": "change in conditioned inhibition", "setting": "mouse [11]; mouse, 4, 8, 16, 32, 64 and 128 mg/kg", "result": "no change was observed in conditioned inhibition"},
      {"measurement": "performance of the animals in 4 plate test", "setting": "mouse [11]; mouse, 4 to 128 mg/kg", "result": "a slight increase in the performance of the animals"},
      {"measurement": "effects of oxotremorine (hypothermia, tremors, tears, hypersalivation, defecation)", "setting": "mice [12]", "result": "unchanged"},
      {"measurement": "change in apomorphine-induced stereotyped movements", "setting": "rat [13]", "result": "did not bring about any change in the sterotyped movements"},
      {"measurement": "time taken to react (licking rear paws) on hot-plate", "setting": "mouse [14]; 64 mg/kg oral, 15 min after, control 9.5 seconds, significant at 0.01", "result": 5.9, "unit": "s"},
      {"measurement": "change in effects of an analgesic dose of morphine on hot-plate test", "setting": "mouse [14]; MDTP at the same dose", "result": "not changed"},
      {"measurement": "change in time to fall asleep and sleeping period", "setting": "mouse [15]", "result": "did not produce any change in the time taken to fall asleep or in the sleeping period"}
    ]}
  ]
}
